From ChEMBL document CHEMBL6092218 (J Med Chem, 2024)
Activity calls are given as the source filed them. The rule behind the calls is not given here.

Legend:
[1] = Metabolic stability in human liver microsomes assessed as apparent intrinsic clearance at 1 uM measured upto 60 mins in presence of NADPH by LC-MS/MS analysis; assay type: ADME, Microsome; conditions: read-out: CLH
[2] = Half-life in mouse at 30 mg/kg, po measured upto 24 hrs by LC-MS/MS analysis; assay type: ADME, organism-based; conditions: in vivo
[3] = Clearance in mouse blood at 30 mg/kg, po measured upto 24 hrs by LC-MS/MS analysis; assay type: ADME, organism-based; conditions: whole blood
MIA PaCa-2 [4] = assay: Antiproliferative activity against human MIA PaCa-2 cells incubated for 6 days by CyQUANT cell proliferation assay; assay type: functional, cell-based; conditions: MIA PaCa-2, 144 h
[5] = Volume of distribution at steady state in mouse at 30 mg/kg, po measured upto 24 hrs by LC-MS/MS analysis; assay type: ADME, organism-based; conditions: in vivo
[6] = Apparent permeability of compound in dog RRCK cells measured after 1.5 hrs by LC-MS/MS analysis; conditions: MDCK
[7] = Bioavailability in mouse at 30 mg/kg, po measured upto 24 hrs by LC-MS/MS analysis; assay type: ADME, organism-based; conditions: in vivo
Cytochrome P450 3A4 = Cytochrome P450 3A4 (Homo sapiens, UniProt P08684); assay: Inhibition of CYP3A4 in human liver microsomes using midazolam as substrate incubated for 4 mins by LC-MS/SM analysis
Sequence of Cytochrome P450 3A4 (P08684 whole entry): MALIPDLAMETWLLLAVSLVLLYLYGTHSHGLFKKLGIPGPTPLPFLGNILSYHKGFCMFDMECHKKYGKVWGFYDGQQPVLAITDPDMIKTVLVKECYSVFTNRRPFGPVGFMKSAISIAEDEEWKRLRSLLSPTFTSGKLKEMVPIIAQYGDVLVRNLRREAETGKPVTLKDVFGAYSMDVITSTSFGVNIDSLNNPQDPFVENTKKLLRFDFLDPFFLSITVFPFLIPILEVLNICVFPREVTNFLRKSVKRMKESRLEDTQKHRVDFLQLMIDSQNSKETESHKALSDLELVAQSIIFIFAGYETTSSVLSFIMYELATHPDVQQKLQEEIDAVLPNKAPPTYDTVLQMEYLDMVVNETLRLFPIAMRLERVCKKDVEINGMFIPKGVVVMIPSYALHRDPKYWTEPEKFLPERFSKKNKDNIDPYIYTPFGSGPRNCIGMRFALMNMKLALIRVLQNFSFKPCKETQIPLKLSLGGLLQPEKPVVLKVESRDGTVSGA

[8] = Toxicity in NSG mouse xenografted in with human MIA PaCa-2 cells assessed as body weight loss at 15 to 30 mg/kg, po qd […]; assay type: organism-based; conditions: in vivo, dose 15-30 mg/kg
MIA PaCa-2 [9] = assay: Antitumor activity against human MIA PaCa-2 cells xenografted in NSG mouse assessed as time duration of coverage of MIA PaCa-2 IC90 in plasma at 15 mg/kg, po bid; assay type: functional
MIA PaCa-2 [10] = assay: Antitumor activity against human MIA PaCa-2 cells xenografted in NSG mouse assessed as time duration of coverage of MIA PaCa-2 IC90 in plasma at 15 mg/kg, po qd; assay type: functional
MIA PaCa-2 [11] = assay: Antitumor activity against human MIA PaCa-2 cells xenografted in NSG mouse assessed as tumor stasis at 30 mg/kg, po qd measured after 24 days; assay type: functional, organism-based; conditions: time 24.0 day
MIA PaCa-2 [12] = assay: Antitumor activity against human MIA PaCa-2 cells xenografted in NSG mouse assessed as time duration of coverage of MIA PaCa-2 IC90 in plasma at 30 mg/kg, po qd; assay type: functional
MIA PaCa-2 [13] = assay: Antitumor activity against human MIA PaCa-2 cells xenografted in NSG mouse assessed as tumor growth inhibition at 30 mg/kg, po qd measured after 24 days by caliper method; assay type: functional; conditions: MIA PaCa-2, 576 h, time 24 day, read-out: TGI
MIA PaCa-2 [14] = assay: Antitumor activity against human MIA PaCa-2 cells xenografted in NSG mouse assessed as tumor growth inhibition at 10 mg/kg, po bid measured after 24 days by caliper method; assay type: functional; conditions: MIA PaCa-2, 576 h, time 24 day, read-out: TGI
MIA PaCa-2 [15] = assay: Antitumor activity against human MIA PaCa-2 cells xenografted in NSG mouse assessed as tumor stasis at 15 mg/kg, po BID measured after 24 days; assay type: functional, organism-based; conditions: time 24.0 day
MIA PaCa-2 [16] = assay: Antitumor activity against human MIA PaCa-2 cells xenografted in NSG mouse assessed as tumor growth inhibition at 15 mg/kg, po bid measured after 24 days by caliper method; assay type: functional; conditions: MIA PaCa-2, 576 h, time 24 day, read-out: TGI
MIA PaCa-2 [17] = assay: Antitumor activity against human MIA PaCa-2 cells xenografted in NSG mouse assessed as time duration of coverage of MIA PaCa-2 IC50 in plasma at 15 mg/kg, po bid; assay type: functional
MIA PaCa-2 [18] = assay: Antitumor activity against human MIA PaCa-2 cells xenografted in po dosed NSG mouse assessed as reduction in tumor volume measured after 24 days by caliper method; assay type: functional, organism-based; conditions: time 24.0 day
MIA PaCa-2 [19] = assay: Antitumor activity against human MIA PaCa-2 cells xenografted in NSG mouse assessed as time duration of coverage of MIA PaCa-2 IC90 in plasma at 10 mg/kg, po bid; assay type: functional
MIA PaCa-2 [20] = assay: Antitumor activity against human MIA PaCa-2 cells xenografted in NSG mouse assessed as time duration of coverage of MIA PaCa-2 IC50 in plasma at 30 mg/kg, po qd; assay type: functional
MIA PaCa-2 [21] = assay: Antitumor activity against human MIA PaCa-2 cells xenografted in NSG mouse assessed as time duration of coverage of MIA PaCa-2 IC50 in plasma at 10 mg/kg, po bid; assay type: functional
MIA PaCa-2 [22] = assay: Antitumor activity against human MIA PaCa-2 cells xenografted in NSG mouse assessed as time duration of coverage of MIA PaCa-2 IC50 in plasma at 15 mg/kg, po qd; assay type: functional
[23] = Toxicity in NSG mouse xenografted in with human MIA PaCa-2 cells assessed as body weight loss at 10 to 15 mg/kg, po bid […]; assay type: organism-based; conditions: in vivo, dose 10-15 mg/kg
MIA PaCa-2 [24] = assay: Antitumor activity against human MIA PaCa-2 cells xenografted in NSG mouse assessed as tumor growth inhibition at 15 mg/kg, po qd measured after 24 days by caliper method; assay type: functional; conditions: MIA PaCa-2, 576 h, time 24 day, read-out: TGI

Cc1cn(C)nc1Nc1cc2cc(-c3cnnn3C)nc(N)c2cn1
microsomal CLint at 1 µM [1]: 15.3 µL/min/mg

Cc1cn(C)nc1Nc1cc2cc(-c3cnccn3)nc(N)c2cn1
microsomal CLint at 1 µM [1]: 21.2 µL/min/mg

CC[C@@](C)(N)c1ccnc(Nc2cc3cc(-c4cnnn4C)nc(N)c3cn2)c1
half-life [2]: 3.8 h | CL/F [3]: 49.4 mL/min/kg | IC50 (MIA PaCa-2 [4]): 6.5 nM | Vdss [5]: 2.8 L/kg | Papp at 1.5 h [6]: 6.4 ×10⁻⁶ cm/s | bioavailability [7]: 3% | microsomal CLint at 1 µM [1]: < 7 µL/min/mg

Cc1cn(C)nc1Nc1cc2cc(-c3sncc3C)nc(N)c2cn1
microsomal CLint at 1 µM [1]: 189 µL/min/mg

Cc1cn(C)nc1Nc1cc2cc(-c3cn[nH]c3C)nc(N)c2cn1
Papp at 1.5 h [6]: 10.8 ×10⁻⁶ cm/s | IC50 (Cytochrome P450 3A4): 14500 nM | microsomal CLint at 1 µM [1]: 31.8 µL/min/mg

CCC(N)(CC)c1ccnc(Nc2cc3cc(N4CCOC4=O)nc(N)c3cn2)c1
IC50 (MIA PaCa-2 [4]): 12.8 nM | Papp at 1.5 h [6]: 12.3 ×10⁻⁶ cm/s | microsomal CLint at 1 µM [1]: 19.4 µL/min/mg

Cc1cn(C)nc1Nc1cc2cc(C3CCc4nccn43)nc(N)c2cn1 (centres undefined)
Papp at 1.5 h [6]: 44.4 ×10⁻⁶ cm/s | IC50 (Cytochrome P450 3A4): > 22400 nM | microsomal CLint at 1 µM [1]: 28.6 µL/min/mg

Cc1cn(C)nc1Nc1cc2cc(-c3cncn3C)nc(N)c2cn1
microsomal CLint at 1 µM [1]: 8.2 µL/min/mg

Cn1nncc1-c1cc2cc(Nc3nn(C)c4c3[C@@H]3CC[C@H]4N(C4CCC4)C3)ncc2c(N)n1
Papp at 1.5 h [6]: 5.2 ×10⁻⁶ cm/s | microsomal CLint at 1 µM [1]: 201 µL/min/mg

CCn1nc(Nc2cc3cc(-c4cnnn4C)nc(N)c3cn2)c2c1[C@@H]1CC[C@H]2C(=O)N1C1CCC1
Papp at 1.5 h [6]: 5.2 ×10⁻⁶ cm/s | microsomal CLint at 1 µM [1]: 76.8 µL/min/mg

Cn1nncc1-c1cc2cc(Nc3cc(C(C)(C)O)ccn3)ncc2c(N)n1
Papp at 1.5 h [6]: 13.3 ×10⁻⁶ cm/s | microsomal CLint at 1 µM [1]: < 7 µL/min/mg

Cn1nncc1-c1cc2cc(Nc3cc(C(C)(C)N)ccn3)ncc2c(N)n1
Papp at 1.5 h [6]: 1.7 ×10⁻⁶ cm/s | microsomal CLint at 1 µM [1]: < 7 µL/min/mg

CCC(N)(CC)c1ccnc(Nc2cc3cc(-c4cnnn4C)nc(N)c3cn2)c1
half-life [2]: 12 h | Activity [8]: Non-toxic | T>IC90 (MIA PaCa-2 [9]): 19 h | T>IC90 (MIA PaCa-2 [10]): 9 h | CL/F [3]: 109 mL/min/kg | Activity (MIA PaCa-2 [11]): Active | T>IC90 (MIA PaCa-2 [12]): 16 h | IC50 (MIA PaCa-2 [4]): 3 nM | Vdss [5]: 4.9 L/kg | inhibition in vivo at 30 mg/kg (MIA PaCa-2 [13]): 106% | inhibition in vivo at 10 mg/kg (MIA PaCa-2 [14]): 58% | Activity (MIA PaCa-2 [15]): Active | inhibition in vivo at 15 mg/kg (MIA PaCa-2 [16]): 103% | T>IC50 (MIA PaCa-2 [17]): 24 h | Papp at 1.5 h [6]: 11.1 ×10⁻⁶ cm/s | Activity (MIA PaCa-2 [18]): Dose-dependent-effect | T>IC90 (MIA PaCa-2 [19]): 16 h | T>IC50 (MIA PaCa-2 [20]): 24 h | bioavailability [7]: 96% | microsomal CLint at 1 µM [1]: 41.1 µL/min/mg | T>IC50 (MIA PaCa-2 [21]): 21 h | T>IC50 (MIA PaCa-2 [22]): 15 h | Activity [23]: Non-toxic | inhibition in vivo at 15 mg/kg (MIA PaCa-2 [24]): 35%

CC[C@](C)(N)c1ccnc(Nc2cc3cc(-c4cnnn4C)nc(N)c3cn2)c1
half-life [2]: 0.6 h | CL/F [3]: 124 mL/min/kg | IC50 (MIA PaCa-2 [4]): 14.5 nM | Vdss [5]: 3.2 L/kg | Papp at 1.5 h [6]: 5.6 ×10⁻⁶ cm/s | bioavailability [7]: 7% | microsomal CLint at 1 µM [1]: < 7 µL/min/mg
